# Patent US4839374A, “4-((Bicyclic heterocyclyl)-methyl and -hetero)-piperidines” (Janssen Pharmaceutica, N.V., priority 1987, dated 1989)
# Where two headings read alike, the source gives them in different places.
# What was measured:
# [1] = tested on: compound 48/80-induced lethality; assay: Protection of rats from compound 48/80-induced lethality; format: in vivo, rats of an inbred Wistar strain; settings: Rattus norvegicus, 4 h, read-out: Compound 48/80 lethality test in rats ED50, s.c. or p.o. 1 h before compound 48/80 0.5 mg/kg i.v.; protection of 50% of animals, survival after 4 hours
# How it was run: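 Male inbred Wistar rats (240-260 g), starved overnight, dosed subcutaneously or orally with compound or 0.9% NaCl before compound 48/80 challenge. Survival at 4 hours counted as protection. ED50 in mg/kg is the dose protecting 50% of animals from lethality.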
# effects of serotonin = assay: Antagonistic activity on the effects of serotonin in the gastric lesion test (lesions induced by compound 48/80); format: in vivo, rats of a Wistar inbred strain; settings: Rattus norvegicus, po, read-out: gastric lesion test ED50
# Experimental: Antagonistic activity on the effects of serotonin in the gastric lesion test.
# The shock, followed by dead, can be avoided if the rats are pretreated with a classical H 1 antagonist.
# Male rats of a Wistar inbred strain, weighing 220-250 g, were starved overnight, water being available ad libitum. The test compounds were administered orally as a solution or as a suspension in aqueous medium. A control rat and a "blank" rat received the test compound. One hour later 5-[4-(diphenylmethyl)1-piperazinylmethyl]-1-methyl-1H-benzimidazole-2-methanol was administered subcutaneously to all rats at the dose of 2.5 mg/kg. […] Four hours after the intravenous injection of compound 48/80, the rats were decapitated and the stomachs were removed. Subsequently the stomachs were inspected for distension and contents (blood, fluid, food) and thoroughly rinsed. The macroscopic lesions were scored from 0 to +++, 0 corresponding to complete absence of visible lesions and the highest score corresponding to reddish rough patches covering more than half the glandular area.
# The second column of tables 1-4 show for a number of compounds of formula (I) the doses (in mg/kg body weight) at which the distension of the stomach as well as the lesions in the glandular area of the stomach are completely absent in 50% of the test rats (ED50 -value).
# [2] = compound 48/80 1 mg/kg i.v., distension and lesions of stomach completely absent in 50% of rats
SMILES,ED50 [1] [mg/kg],ED50 (effects of serotonin) [mg/kg],ED50 (effects of serotonin; [2]) [mg/kg]
"c1ccc(Cn2c(CC3CCN(CCNc4nc5cnccc5[nH]4)CC3)nc3ccccc32)cc1 [Compound 422, N-[2-[4-[[1-(phenylmethyl)-1H-benzimidazol-2-yl]methyl]-1-piperidinyl]ethyl]-1H-imidazo[4,5-c]pyridin-2-amine]",0.04,0.04,–
Cc1nc2n(c(=O)c1CCN1CCC(Cc3nc4ccccc4n3Cc3cscn3)CC1)CCCC2 [Compound 262],0.04,–,0.16
"CCCC(=O)c1ccc(OC)c(C(=O)NCCN2CCC(Cc3nc4ccccc4n3Cc3ccc(F)cc3)CC2)c1 [Compound 441, N-[2-[4-[[1-[(4-fluorophenyl)methyl]-1H-benzimidazol-2-yl]methyl]-1-piperidinyl]ethyl]-2-methoxy-5-(1-oxobutyl)benzamide]",0.08,–,0.16
"Cn1cnc([N+](=O)[O-])c1N1CCC(N2CCC(Cc3nc4ccccc4n3Cc3ccc(F)cc3)CC2)CC1 [Compound 380, 4-[[1-[(4-fluorophenyl)methyl]-1H-benzimidazol-2-yl]methyl]-1'-(1-methyl-4-nitro-1H-imidazol-5-yl)-[1,4'-bipiperidine]]",0.31,–,0.63
"CC(C)NC(=O)CCN1CCC(Cc2nc3ccccc3n2Cc2ccc(F)cc2)CC1 [Compound 145, 4-[[1-[(4-fluorophenyl)methyl]-1H-benzimidazol-2-yl]methyl]-N-(1-methylethyl)-1-piperidinepropanamide]",0.02,–,0.16
"CNc1ccccc1C(=O)NCCN1CCC(Cc2nc3ccccc3n2Cc2ccc(F)cc2)CC1 [Compound 467, N-[2-[4-[[1-[(4-fluorophenyl)methyl]-1H-benzimidazol-2-yl]methyl]-1-piperidinyl]ethyl]-2-(methylamino)benzamide]",0.04,0.08,–
"O=C(NCCN1CCC(Cc2nc3ccccc3n2Cc2ccc(F)cc2)CC1)c1cccs1 [Compound 443, N-[2-[4-[[1-[(4-fluorophenyl)methyl]-1H-benzimidazol-2-yl]methyl]-1-piperidinyl]ethyl]-2-thiophenecarboxamide]",0.02,–,0.16
Cc1nc2n(c(=O)c1CCN1CCC(Cc3nc4cccnc4n3Cc3ccco3)CC1)CCS2 [Compound 168],0.04,–,0.63
Fc1ccc(Cn2c(CC3CCN(CCNc4ncccn4)CC3)nc3ccccc32)cc1 [Compound 374],0.02,–,0.02
CC(C)N1CCC(Cc2nc3ccccc3n2Cc2ccccc2)CC1 [Compound 94],0.08,–,0.63
"Fc1ccc(Cn2c(CC3CCNCC3)nc3ccccc32)cc1 [Compound 47, 1-[(4-fluorophenyl)methyl]-2-(4-piperidinylmethyl)-1H-benzimidazole]",0.08,–,0.63
c1ccc(Cn2c(CC3CCN(CCNc4ncccn4)CC3)nc3ccccc32)cc1 [Compound 344],0.02,–,–
CN1CCC(Oc2nc3ccccc3n2Cc2ccc(F)cc2)CC1 [Compound 85],0.01,–,–
S=C=NCCN1CCC(Cc2nc3cccnc3n2Cc2cccs2)CC1 [Compound 402],0.04,–,–
O=S(=O)(CCN1CCC(Cc2nc3ccccc3n2Cc2ccc(F)cc2)CC1)c1ccccc1 [Compound 130],0.16,–,–
COc1ccc(CCN2CC[C@@H](Oc3nc4ccccc4n3Cc3ccc(F)cc3)[C@H](C)C2)cc1 (relative stereo) [Compound 268],0.16,–,–
CC(C)N1CCC(Cc2nc3cnccc3n2Cc2ccc(F)cc2)CC1 [Compound 100],0.16,–,–
Cc1nc2n(c(=O)c1CCN1CCC(Cc3nc4cccnc4n3Cc3ccco3)CC1)CCCS2 [Compound 178],0.02,–,–
c1cnc(NCCN2CCC(Cc3nc4cccnc4n3Cc3ccco3)CC2)nc1 [Compound 339],0.01,–,–
CN1CCC(Sc2nc3ccccc3n2Cc2ccc(F)cc2)CC1 [Compound 96],0.04,–,–
"Fc1ccc(Cn2c(CC3CCN(CCNc4cnccn4)CC3)nc3ccncc32)cc1 [Compound 373, N-[2-[4-[[3-[(4-fluorophenyl)methyl]-3H-imidazo[4,5-c]pyridin-2-yl]methyl]-1-piperidinyl]ethyl]-2-pyrazinamine]",0.08,–,–
"Fc1ccc(Cn2c(CC3CCN(CCNc4ccc(Cl)nn4)CC3)nc3ccccc32)cc1 [Compound 378, 6-chloro-N-[2-[4-[[1-[(4-fluorophenyl)methyl]-1H-benzimidazol-2-yl]methyl]-1-piperidinyl]ethyl]-3-pyridazinamine]",0.04,–,–

SMILES,ED50 [1] [mg/kg],ED50 (effects of serotonin) [mg/kg],ED50 (effects of serotonin; [2]) [mg/kg]
"O=C(NCCN1CCC(Cc2nc3ccccc3n2Cc2ccc(F)cc2)CC1)c1cc2ccccc2oc1=O [Compound 445, N-[2-[4-[[1-[(4-fluorophenyl)methyl]-1H-benzimidazol-2-yl]methyl]-1-piperidinyl]ethyl]-2-oxo-2H-1-benzopyran-3-carboxamide]",0.16,–,–
"Cc1ccc(Cn2c(CC3CCN(C)CC3)nc3ccccc32)cc1 [Compound 81, 1-[(4-methylphenyl)methyl]-2-[(1-methyl-4-piperidinyl)methyl]-1H-benzimidazole]",0.08,–,–
"COc1ccc(CCN2CCC(Cc3nc4ccccc4n3Cc3ccccc3F)CC2)cc1 [Compound 515, 1-[(2-fluorophenyl)methyl]-2-[[1-[2-(4-methoxyphenyl)ethyl]-4-piperidinyl]-methyl]-1H-benzimidazole]",0.16,–,–
"COc1ccc(CCN2CCC(Cc3nc4ncccc4n3Cc3ccc(F)cc3)CC2)cc1 [Compound 203, 1-[(4-fluorophenyl)methyl]-2-[[1-[2-(4-methoxyphenyl)ethyl]-4-piperidinyl]methyl]-1H-imidazo-[4,5-b]pyridine]",0.04,–,–
"Fc1ccc(Cn2c(CC3CCN(CCSc4ccccc4)CC3)nc3cccnc32)cc1 [Compound 147, 3-[(4-fluorophenyl)methyl]-2-[[1-[2-(phenylthio)ethyl]-4-piperidinyl]methyl]-3H-imidazo[4,5-b]pyridine]",0.08,–,–
CC(C)N1CCC(Cc2nc3cccnc3n2Cc2ccc(F)cc2)CC1 [Compound 89],0.04,–,–
O=c1oc2ccccc2cc1CCN1CCC(Cc2nc3ccccc3n2Cc2ccc(F)cc2)CC1 [Compound 161],0.04,–,–
"OCCN1CCC(Oc2nc3ccccc3n2Cc2ccc(F)cc2)CC1 [Compound 105, 4-[[1-[(4-fluorophenyl)methyl]-1H-benzimidazol-2-yl]oxy]-1-piperidineethanol]",0.01,–,–
"CCOC(=O)NCCN1CCC(Sc2nc3ccccc3n2Cc2ccc(F)cc2)CC1 [Compound 243, ethyl [2-[4-[[1-[(4-fluorophenyl)methyl]-1H-benzimidazol-2-yl]-thio]-1-piperidinyl)ethyl]carbamate]",0.04,–,–
"COc1ccc(CCN2CCC(Cc3nc4ccccc4n3Cc3cscn3)CC2)cc1 [Compound 245, 2-[[1-[2-(4-methoxyphenyl)ethyl]-4-piperidinyl]methyl]-1-(4-thiazolylmethyl)-1H-benzimidazole]",0.02,–,–
Cc1nc2ccccn2c(=O)c1CCN1CCC(Cc2nc3cccnc3n2Cc2ccccn2)CC1 [Compound 256],0.08,–,–
"Cc1ccc(Cn2c(CC3CCN(CCO)CC3)nc3ccccc32)cc1 [Compound 113, 4-[[1-[(4-methylphenyl)methyl]-1H-benzimidazol-2-yl]methyl]-1-piperidineethanol]",0.08,–,–
"c1coc(Cn2c(CC3CCN(CCNc4nccs4)CC3)nc3cccnc32)c1 [Compound 352, 4-[[3-(2-furanylmethyl)-3H-imidazo[4,5-b]pyridin-2-yl]methyl]-N-(2-thiazolyl)-1-piperidineethanamine]",0.01,–,–
"Nc1ccccc1C(=O)NCCCCN1CCC(Cc2nc3ccccc3n2Cc2ccco2)CC1 [Compound 472, 2-amino-N-[4-[4-[[1-(2-furanylmethyl)-1H-benzimidazol-2-yl]methyl]-1-piperidinyl]butyl]benzamide]",0.04,–,–
COc1ccc(CCN2CCC(Cc3nc4cccnc4n3Cc3ccccn3)CC2)cc1 [Compound 234],0.02,–,–
"Fc1ccc(Cn2c(CC3CCN(CCOCc4ccccn4)CC3)nc3cccnc32)cc1 [Compound 394, 3-[(4-fluorophenyl)methyl]-2-[[1-[2-(2-pyridinylmethoxy)ethyl]-4-piperidinyl]-methyl]-3H-imidazol[4,5-b]pyridine]",0.02,–,–
Cn1c(=O)n(CCN2CCC(Cc3nc4cccnc4n3Cc3ccco3)CC2)c(=O)c2ccccc21 [Compound 170],0.08,–,–
"Nc1ccccc1C(=O)NCCN1CCC(Cc2nc3cccnc3n2Cc2ccco2)CC1 [Compound 473, 2-amino-N-[2-[4-[[3-(2-furanylmethyl)-3H-imidazo[4,5-b]pyridin-2-yl]methyl]-1-piperidinyl]ethyl]benzamide]",0.02,–,–
O=c1[nH]c2ccccc2c(=O)n1CCCN1CCC(Cc2nc3cccnc3n2Cc2ccco2)CC1 [Compound 169],0.02,–,–
c1ccc(Cn2c(CC3CCN(CCNc4nccs4)CC3)nc3ccccc32)cc1 [Compound 363],0.04,–,–
Cc1nc2scc(C)n2c(=O)c1CCN1CCC(Cc2nc3ccccc3n2Cc2ccco2)CC1 [Compound 216],0.04,–,–
